Experimental data as given in article PMC10287695, “Non-covalent inhibitors of thioredoxin glutathione reductase with schistosomicidal activity in vivo” (Nature Communications, 2023).
“And” between values parts separate entries of the source, which are not always exact repeats. Equal values may be shown once.

Assays:
S. mansoni TGR = target: T1, S. mansoni TGR (Schistosoma mansoni, UniProt Q962Y6); experiment: S. mansoni TGR enzyme inhibition (DTNB reduction); assay type: biochemical
T1 construct: made in house
T1 sequence (Q962Y6 1-598): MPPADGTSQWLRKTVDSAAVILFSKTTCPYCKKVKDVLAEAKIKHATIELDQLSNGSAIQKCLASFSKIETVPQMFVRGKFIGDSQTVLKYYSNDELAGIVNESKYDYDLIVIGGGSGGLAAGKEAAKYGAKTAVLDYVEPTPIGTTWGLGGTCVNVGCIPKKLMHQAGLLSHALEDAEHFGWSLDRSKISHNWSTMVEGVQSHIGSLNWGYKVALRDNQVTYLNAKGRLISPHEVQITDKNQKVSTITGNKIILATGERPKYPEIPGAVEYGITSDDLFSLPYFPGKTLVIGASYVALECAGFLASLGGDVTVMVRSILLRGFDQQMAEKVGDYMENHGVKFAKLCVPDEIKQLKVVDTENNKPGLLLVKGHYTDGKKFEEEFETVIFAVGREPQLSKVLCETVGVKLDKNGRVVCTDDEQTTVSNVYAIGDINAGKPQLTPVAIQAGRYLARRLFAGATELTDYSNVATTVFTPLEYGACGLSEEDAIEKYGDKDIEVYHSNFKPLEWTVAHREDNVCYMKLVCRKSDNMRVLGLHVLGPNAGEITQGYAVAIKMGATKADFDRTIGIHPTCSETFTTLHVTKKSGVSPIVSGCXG
Method: Recombinant TGR, human TrxR1, B. malayi (Bm)TrxR and human GR proteins were expressed and purified as described[20],[69],[79]. The codon optimized sequence for P. falciparum (PfTrxR, https://www.ncbi.nlm.nih.gov/protein/CAA60574.1/) with an N-terminal 6-His tag was synthesized and inserted into pET15b (GenScript) and expressed in BL21 (DE3) cells and purified as described for human GR[20]. TGR and TrxR enzyme inhibition assays were performed in triplicate at 25 °C as described[20] in 0.1 M potassium phosphate (pH 7.4), 10 mM EDTA, 100 µM NADPH and 0.01% Tween-20. […] The reaction was started with addition of an equal volume of DTNB (6 mM) and NADPH (100 µM) and the increase in A412 during the first 3 min was recorded. […] The reaction was preincubated for 15 min. Activity was initiated with the addition of 1 mM GSSG and 100 μM NADPH and initial rates of NADPH oxidation were monitored at 340 nm. The reactions were done in triplicate. The IC50 was calculated in GraphPad Prism.

recombinant TGR = target: T2, recombinant TGR (Schistosoma mansoni, UniProt Q962Y6); experiment: Photolabeling of TGR with PRP; assay type: binding, S. mansoni; conditions: for 800 nm Normalized Signal: TGR 1 µM
T2 construct: made in house
Method: […] The photocrosslinking and CuAAC click biotinylation were performed as previously described by our group. After resolving samples on SDS-PAGE and nitrocellulose membrane transfer, western blot normalization was performed with the Licor Revert™ 700 Total Protein Stain Kit as described in their protocol. Protein was finally imaged with the Licor IRDye® 800CW streptavidin on the Odyssey Sa imager.

[1] = target: S. mansoni histone deacetylase 8 (Schistosoma mansoni, UniProt A5H660); experiment: Photolabeling of control protein SmHDAC8 with PRP; assay type: binding; conditions: for 800 nm Normalized Signal: SmHDAC8 1 µM
Method: TGR (1 µM) or SmHDAC8 (1 µM) was incubated at concentrations of either 5 or 50 µM PRP with or without 100 µM NADPH totaling eight samples. The photocrosslinking and CuAAC click biotinylation were performed as previously described by our group. After resolving samples on SDS-PAGE and nitrocellulose membrane transfer, western blot normalization was performed with the Licor Revert™ 700 Total Protein Stain Kit as described in their protocol. Protein was finally imaged with the Licor IRDye® 800CW streptavidin on the Odyssey Sa imager.

TGR [2] = target: T3, TGR (Schistosoma mansoni, UniProt Q962Y6); experiment: Reversibility by jump dilution; assay type: biochemical
T3 construct: made in house
T3 sequence (Q962Y6 1-598): T1 sequence (Q962Y6 1-598)
Method: A reaction of 370 nM TGR, 100 µM NADPH, and 250 µM inhibitor was incubated for 15 min at room temperature. A 100x dilution of the reaction was made and the activity was determined immediately and after 60 min.

TGR [3] = target: T4, TGR (Schistosoma mansoni, UniProt Q962Y6, X597U); experiment: NADPH consumption (oxidase activity); assay type: biochemical, S. mansoni
T4 construct: made in house
Method: TRi-1, Stattic (both at 50 µM) and AF (20 µM) were incubated with 1 ml of 500 nM TGR and 100 µM NADPH in TGR reaction buffer for 30 min. The samples were desalted using a Zeba spin desalting column (Thermo Fisher Scientific) and 100 µl of the desalted sample was combined with 100 µl of 100 µM NADPH. NADPH consumption was monitored at 340 nm in triplicate. Compounds 1, 4, 6, and 7 (50 µM) were tested in the same fashion without the desalting step and with a first incubation step of 30 min for 6 and 7 and 2 h for 1 and 4.

TGR [4] = target: T4, TGR; experiment: Superoxide production (pyrogallol red); assay type: biochemical, S. mansoni; conditions: replicates
Method: The production of superoxide by TGR was determined by monitoring reaction of superoxide with pyrogallol red[80]. Briefly, a 1 ml reaction mix (500 nM TGR, 100 µM NADPH, and 20–50 µM inhibitor) was incubated at room temperature for 30 min for fast inhibitors, or 2 h for slow inhibitors. For irreversible inhibitor controls TRi-1 (synthesized in house as reported[45]), Stattic (Cayman Chemical), and AF (Cayman Chemical), the samples were desalted using a Zeba spin desalting column. 100 µL of sample was combined with pyrogallol buffer with and without superoxide dismutase (SOD) (50 µM pyrogallol red, 300 µM NADPH; ± 10 units SOD). The reaction was measured at A340 and A540 simultaneously for 2 h.

[5] = Reactivity with GSH or N-Boc protected methyl ester of selenocysteine (LCMS); assay type: physicochemical; conditions: up to 120 h
Method: Dimethyl bis(N-tert-butoxycarbonyl)-L-selenocystine was synthesized as reported previously. (N-tert-butoxycarbonyl)-L-selenocysteine methyl ester was prepared in situ[86] in methanol or phosphate buffer. Compound 2 was added to the solution of (N-tert-butoxycarbonyl)-L-selenocysteine methyl ester in either methanol or phosphate buffer and incubated for 40 min, 24 h, and 120 h under N2 gas balloon. Additional amounts of NaBH4 were added at 12 h and 96 h to maintain the reducing conditions. Aliquots taken from methanol solution at each of the time points were concentrated in vacuo, mixed with water, and extracted with ethyl acetate. The organic layer was separated, concentrated in vacuo, re-dissolved in methanol and analyzed by LCMS. Aliquots taken from the phosphate buffer solution were extracted with ethyl acetate. The resulting organic layer was separated and concentrated in vacuo. The residue was re-dissolved in methanol and analyzed by LCMS. […] No additional spots were detected by TLC as well.
Covalent TGR inhibitor TRi-1 was used as a positive control for the reaction with (N-tert-butoxycarbonyl)-L-selenocysteine methyl ester. The reactivity of TRi-1 was tested similarly as described above for compound 2.

[6] = D0: diluted 1:100, activity determined immediately, list for plotting
[7] = D60: diluted 1:100, activity determined after 60 min, list for plotting

Chain of S. mansoni histone deacetylase 8 (A5H660 entry or part of it): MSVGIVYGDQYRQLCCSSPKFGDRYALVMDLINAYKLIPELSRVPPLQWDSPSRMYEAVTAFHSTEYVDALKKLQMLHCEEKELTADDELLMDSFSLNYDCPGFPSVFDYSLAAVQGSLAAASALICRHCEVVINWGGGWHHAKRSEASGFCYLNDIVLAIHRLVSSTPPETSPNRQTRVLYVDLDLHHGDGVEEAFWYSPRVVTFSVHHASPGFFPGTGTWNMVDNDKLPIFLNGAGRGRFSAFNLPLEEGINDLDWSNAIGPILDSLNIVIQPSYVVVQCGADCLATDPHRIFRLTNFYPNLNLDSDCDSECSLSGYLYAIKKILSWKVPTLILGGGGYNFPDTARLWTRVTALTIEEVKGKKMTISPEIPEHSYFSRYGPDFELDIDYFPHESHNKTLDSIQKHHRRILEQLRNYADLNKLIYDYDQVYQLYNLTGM

SMILES: C#CCN(CCCNC(=O)c1c(F)c(F)c(N=[N+]=[N-])c(F)c1F)[C@@H]1C[C@@H]2C[C@H]([C@H]1C)C2(C)C [PRP]
- IC50 (S. mansoni TGR; 15 min preincubation (enzyme + 100 µM NADPH + compound)): 34.9 ± 6.11 µM
- inhibition at 15 µM (S. mansoni TGR; read-out: TGR % inhibition): 30.8%
- inhibition at 30 µM (S. mansoni TGR; read-out: TGR % inhibition): 47.5%
- inhibition at 66.7 µM (S. mansoni TGR; read-out: TGR % inhibition): 55.1%
- labeling of TGR with NADPH versus without NADPH (recombinant TGR; 5 and 50 μM PRP): more effective
- 800 nm Normalized Signal (recombinant TGR; PRP 2 µM, NADPH 0 µM): 57760
- 800 nm Normalized Signal (recombinant TGR; PRP 2 µM, NADPH 100 µM): 84928
- 800 nm Normalized Signal (recombinant TGR; PRP 10 µM, NADPH 0 µM): 151239
- 800 nm Normalized Signal (recombinant TGR; PRP 10 µM, NADPH 100 µM): 231567
- 800 nm Normalized Signal ([1]; PRP 5 µM, NADPH 0 µM): 1385
- 800 nm Normalized Signal ([1]; PRP 5 µM, NADPH 100 µM): 2194
- 800 nm Normalized Signal ([1]; PRP 50 µM, NADPH 0 µM): 298
- 800 nm Normalized Signal ([1]; PRP 50 µM, NADPH 100 µM): 1875
- labeling of S. mansoni histone deacetylase 8 ([1]; with or without NADPH): not labeled

SMILES: COc1ccc([N+](=O)[O-])c(S(=O)(=O)c2ccc(Cl)cc2)n1 [TRi-1, reference compound]
- reversibility of TGR inhibition (TGR [2]; 250 µM inhibitor, 100-fold jump dilution): irreversible
- % Activity (ID list), D0 (TGR [2]; [6]): -1.4% and -0.0373% and 0.6%
- % Inhibition (ID list), D0 (TGR [2]; [6]): 101.4% and 100.0% and 99.4%
- % Activity (ID list), D60 (TGR [2]; [7]): 2.1% and 1.1% and 1.2%
- % Inhibition (ID list), D60 (TGR [2]; [7]): 97.9% and 98.9% and 98.8%
- % Activity, 0 min (TGR [2]; [0, D0]: 15 min preincubation inhibitor + TGR + NADPH, diluted 1:100, then activity determined immediately, relative to DMSO): -1.437% and -0.03726% and 0.6084%
- Inhibitor (rate), 60 min (TGR [2]; [60, D60]: 15 min preincubation inhibitor + TGR + NADPH, diluted 1:100, then activity determined after 60 min, raw rate): 0.001123 and 0.0005896 and 0.0006645
- % Activity, 60 min (TGR [2]; [60, D60]: 15 min preincubation inhibitor + TGR + NADPH, diluted 1:100, then activity determined after 60 min, relative to DMSO): 2.121% and 1.115% and 1.1607%
- Inhibitor (rate), -15 (TGR [2]; [-15]: 15 min preincubation inhibitor + TGR + NADPH, then activity determined, raw rate, replicates): 0.0012 and -0.0009 and -0.001
- % Activity, -15 (TGR [2]; [-15]: 15 min preincubation inhibitor + TGR + NADPH, then activity determined, relative to DMSO, replicates): 2.39% and -1.793% and -3.401%
- % Inhibition (ID list) (TGR [2]; before dilution (-15), list for plotting): 101.0% and 101.8% and 97.0%
- NADPH consumption by TGR after exposure (TGR [3]): converted TGR to a pro-oxidant enzyme
- NADPH consumption (rate/ΔOD340) (TGR [3]; replicates): -0.001513 and -0.00148 and -0.001553
- Superoxide production, Pyrogallol red consumption monitored ΔA540 (TGR [4]; condition not given): -0.002664 and -0.002628 and -0.002752
- Superoxide production, Pyrogallol red consumption monitored ΔA540 (TGR [4]; second of the two columns per substance (condition not given)): -5.614e-5 and -5.998e-5
- reaction with thiol or selenol groups in GSH or protected selenocysteine [5]: An adduct between TRi-1 was detected
